Laboratory results from ChEMBL document CHEMBL1201862, “PubChem BioAssay data set” (2004).
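Dose response: 5 concentrations. Exposure: 48 h. Format: 96-well plates. Endpoint: linear interpolation; highest concentration if not reached. Abbreviation: GI50, concentration required for 50% inhibition of growth.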 Active and inactive are the calls of the source. No stated cut-off is given here; in the data, active = GI50 up to about 1.1 µM and inactive = higher.

Experiments:
Test in all cases: growth of human tumour cells (NCI), 48 h
SW-620 = system: SW-620
HOP-92 = system: HOP-92
OVCAR-8 = system: OVCAR-8
K562 = system: K562
BT-549 = system: BT-549
786-0 = system: 786-0
SR = system: SR
MDA-N = system: MDA-N
EKVX = system: EKVX
HCT-15 = system: HCT-15
HCT-116 = system: HCT-116
SF-268 = system: SF-268
SK-MEL-2 = system: SK-MEL-2
LOX IMVI = system: LOX IMVI
MDA-MB-231 = system: MDA-MB-231
Malme-3M = system: Malme-3M

Structure (SMILES)	GI50 (SW-620)	GI50 (HOP-92)	GI50 (OVCAR-8)	GI50 (K562)	GI50 (BT-549)	GI50 (786-0)	GI50 (SR)	GI50 (MDA-N)	GI50 (EKVX)	GI50 (HCT-15) [µM]	GI50 (HCT-116)	GI50 (SF-268)	GI50 (SK-MEL-2)	GI50 (LOX IMVI)	GI50 (MDA-MB-231)	GI50 (Malme-3M)
Nc1ncnc2c1ncn2[C@@H]1O[C@H](COP(=O)(O)OP(=O)(O)OC[C@H]2O[C@@H](OCCCO)[C@H](O)[C@@H]2O)[C@@H](O)[C@H]1O	> 100 µM (inactive)	> 100 µM (inactive)	> 100 µM (inactive)	> 100 µM (inactive)	> 100 µM (inactive)	> 100 µM (inactive)	44.8 µM (inactive)	78.9 µM (inactive)	> 100 µM (inactive)	60	61.1 µM (inactive)	> 100 µM (inactive)	> 100 µM (inactive)	56.8 µM (inactive)	> 100 µM (inactive)	> 100 µM (inactive)
CC(=O)OCC12C(OC(C)=O)C(=O)C3C(OC(C)=O)C14OC3(C)COC(=O)c1cccnc1C(C)C(C)C(=O)OC(C(OC(C)=O)C2OC(C)=O)C4(C)O (stereo not given)	> 100 µM (inactive)	> 100 µM (inactive)	> 100 µM (inactive)	> 100 µM (inactive)	> 100 µM (inactive)	> 100 µM (inactive)	42.6 µM (inactive)	> 100 µM (inactive)	> 100 µM (inactive)	> 100	> 100 µM (inactive)	> 100 µM (inactive)	> 100 µM (inactive)	> 100 µM (inactive)	> 100 µM (inactive)	> 100 µM (inactive)
CCC/C(Cl)=N\OC(=O)Nc1ccc(Br)cc1	2.36 µM (inactive)	3.33 µM (inactive)	14.6 µM (inactive)	1.94 µM (inactive)	17.7 µM (inactive)	7.24 µM (inactive)	5.68 µM (inactive)	13.2 µM (inactive)	14.6 µM (inactive)	2.56	9.48 µM (inactive)	17.7 µM (inactive)	15 µM (inactive)	3.89 µM (inactive)	16.9 µM (inactive)	5.73 µM (inactive)
COc1ccc2c(=O)c3cc([N+](=O)[O-])ccc3n(C)c2c1	> 100 µM (inactive)	> 100 µM (inactive)	> 100 µM (inactive)	> 100 µM (inactive)	> 100 µM (inactive)	> 100 µM (inactive)	> 100 µM (inactive)	> 100 µM (inactive)	6.37 µM (inactive)	> 100		> 100 µM (inactive)	> 100 µM (inactive)	> 100 µM (inactive)	> 100 µM (inactive)	> 100 µM (inactive)
Cc1nn(C(=O)c2ccccc2O)c2c1C(c1ccc(O)cc1O)SC(=N)N2 (stereo not given)	5.04 µM (inactive)	3.67 µM (inactive)	6.04 µM (inactive)	2.63 µM (inactive)	2.52 µM (inactive)	6.85 µM (inactive)	6.67 µM (inactive)	5.78 µM (inactive)	8.11 µM (inactive)	3.66	3.83 µM (inactive)	4.75 µM (inactive)	> 10 µM (inactive)	4.6 µM (inactive)	5.14 µM (inactive)	> 10 µM (inactive)
Cc1ccc(S(=O)(=O)Oc2cc(S(=O)(=O)O)cc3cc(S(=O)(=O)O)cc(N)c23)cc1	> 100 µM (inactive)	22 µM (inactive)	> 100 µM (inactive)	> 100 µM (inactive)	> 100 µM (inactive)	> 100 µM (inactive)	> 100 µM (inactive)	> 100 µM (inactive)	> 100 µM (inactive)	> 100	> 100 µM (inactive)	> 100 µM (inactive)	> 100 µM (inactive)	> 100 µM (inactive)	> 100 µM (inactive)	> 100 µM (inactive)
CC(/C=N/N(C)C1=NCCCN1)=N/N(C)C1=NCCCN1	> 100 µM (inactive)	> 100 µM (inactive)	> 100 µM (inactive)	> 100 µM (inactive)	> 100 µM (inactive)	> 100 µM (inactive)	> 100 µM (inactive)	> 100 µM (inactive)	> 100 µM (inactive)	> 100	> 100 µM (inactive)	> 100 µM (inactive)	> 100 µM (inactive)	> 100 µM (inactive)	> 100 µM (inactive)	> 100 µM (inactive)
NC(Cc1c[nH]c2cc([N+](=O)[O-])ccc12)C(=O)O (stereo not given)	> 100 µM (inactive)	67.6 µM (inactive)	> 100 µM (inactive)	> 100 µM (inactive)	> 100 µM (inactive)	> 100 µM (inactive)	> 100 µM (inactive)	> 100 µM (inactive)	> 100 µM (inactive)	> 100	> 100 µM (inactive)	> 100 µM (inactive)	> 100 µM (inactive)	> 100 µM (inactive)	> 100 µM (inactive)	> 100 µM (inactive)
O=C(ON=C1c2ccccc2C(Br)C(Br)c2ccccc21)c1ccccc1 (stereo not given)	8.49 µM (inactive)	1.17 µM (inactive)	9.18 µM (inactive)	2.95 µM (inactive)	19.6 µM (inactive)	9.62 µM (inactive)	3.09 µM (inactive)	17.8 µM (inactive)	23.1 µM (inactive)	17.6	14.6 µM (inactive)	20.7 µM (inactive)	30.2 µM (inactive)	4.28 µM (inactive)	16.7 µM (inactive)	20.7 µM (inactive)
C[N+]12CCCCC1C(CN1C(=O)Cc3c4ccccc4c(c4ccccc34)CC1=O)CCC2 (stereo not given)	> 100 µM (inactive)	> 100 µM (inactive)	> 100 µM (inactive)	> 100 µM (inactive)	> 100 µM (inactive)	> 100 µM (inactive)	> 100 µM (inactive)	> 100 µM (inactive)	> 100 µM (inactive)	> 100	> 100 µM (inactive)	> 100 µM (inactive)	> 100 µM (inactive)	> 100 µM (inactive)	> 100 µM (inactive)	> 100 µM (inactive)
Cc1cc(C)c2ccc(N3CCNCC3)nc2n1	> 100 µM (inactive)	> 100 µM (inactive)	> 100 µM (inactive)	> 100 µM (inactive)	> 100 µM (inactive)	67.9 µM (inactive)	> 100 µM (inactive)	> 100 µM (inactive)	> 100 µM (inactive)	> 100	84.1 µM (inactive)	> 100 µM (inactive)	> 100 µM (inactive)	> 100 µM (inactive)	> 100 µM (inactive)	> 100 µM (inactive)
CC1=NN(c2ccccc2)C(=O)C1/N=N/c1ccc([As](=O)(O)O)c(O)c1 (stereo not given)	> 100 µM (inactive)	> 100 µM (inactive)	> 100 µM (inactive)	> 100 µM (inactive)	> 100 µM (inactive)	> 100 µM (inactive)	> 100 µM (inactive)	> 100 µM (inactive)	> 100 µM (inactive)	> 100	> 100 µM (inactive)	> 100 µM (inactive)	> 100 µM (inactive)	> 100 µM (inactive)	> 100 µM (inactive)	> 100 µM (inactive)
OCC1OC(n2cnc3c2N=CNC[C@H]3O)C(Cl)C1O (stereo not given in full)	> 100 µM (inactive)	> 100 µM (inactive)	> 100 µM (inactive)		> 100 µM (inactive)	> 100 µM (inactive)	> 100 µM (inactive)	> 100 µM (inactive)	> 100 µM (inactive)	> 100	> 100 µM (inactive)	> 100 µM (inactive)	> 100 µM (inactive)	> 100 µM (inactive)	> 100 µM (inactive)	> 100 µM (inactive)
O=C1N/C(=N/N=C/c2ccccc2)N/C1=C\c1cccs1	11.7 µM (inactive)	15.8 µM (inactive)	13 µM (inactive)	12.2 µM (inactive)	15.2 µM (inactive)	18.5 µM (inactive)	28.2 µM (inactive)	8.32 µM (inactive)	21.5 µM (inactive)	17.9	17.3 µM (inactive)	9.89 µM (inactive)	8.57 µM (inactive)	8.34 µM (inactive)	18.6 µM (inactive)	8.99 µM (inactive)
Nc1nc(=O)c2c([nH]1)NCC(CCNc1ccc(C(=O)O)cc1)N2 (stereo not given)	> 100 µM (inactive)	> 100 µM (inactive)	> 100 µM (inactive)	> 100 µM (inactive)	> 100 µM (inactive)	> 100 µM (inactive)	> 100 µM (inactive)	> 100 µM (inactive)	> 100 µM (inactive)	> 100	> 100 µM (inactive)	> 100 µM (inactive)	> 100 µM (inactive)	> 100 µM (inactive)	> 100 µM (inactive)	> 100 µM (inactive)
CC/C(Cl)=N\OC(=O)Nc1ccc(F)c([N+](=O)[O-])c1	4.15 µM (inactive)	5.14 µM (inactive)	16.6 µM (inactive)	3.05 µM (inactive)	16.7 µM (inactive)	6.64 µM (inactive)	> 39.5 µM (inactive)	17.7 µM (inactive)	19.2 µM (inactive)	6.44	7 µM (inactive)	16.9 µM (inactive)	17 µM (inactive)	15.6 µM (inactive)	18.2 µM (inactive)	2.13 µM (inactive)
COc1cc2c(cc1OCCCC(=O)Nc1cc(C(=O)Nc3cc(C(=O)NCCCN(C)C)n(C)n3)n(C)n1)N=CC1CCCN1C2=O (stereo not given)	15.2 µM (inactive)	19.1 µM (inactive)	22 µM (inactive)	14.6 µM (inactive)	12.1 µM (inactive)	16.3 µM (inactive)	12.9 µM (inactive)	16.6 µM (inactive)	34 µM (inactive)	16.1	16 µM (inactive)	18.3 µM (inactive)	16.4 µM (inactive)	20.7 µM (inactive)	20 µM (inactive)	17.2 µM (inactive)
